Source: patent US20260355161A1, “NOVEL HETEROCYCLYL-PHENYL-METHYLAMINE DERIVATIVES, PREPARATION METHOD THEREOF, AND USE THEREOF IN PREVENTING, ALLEVIATING, OR TREATING MULTIPLE SCLEROSIS” (Cureverse Incorporated, priority 2022, published 2026)

Legend:
S1P3 receptor = conditions: background art; cited from earlier work
S1P1 [1] = target: T1, S1P1 (Homo sapiens, UniProt P21453); conditions: background art; cited from earlier work
S1P5 = conditions: background art; cited from earlier work
[2] = background art; cited from earlier work
S1P1 [3] = target: T1, S1P1; assay: β-arrestin recruitment after S1P1 receptor activation, S1P1 overexpressing cell line (luminescence); conditions: based on the two EC50 values of Table 1

T1 sequence (P21453 whole entry): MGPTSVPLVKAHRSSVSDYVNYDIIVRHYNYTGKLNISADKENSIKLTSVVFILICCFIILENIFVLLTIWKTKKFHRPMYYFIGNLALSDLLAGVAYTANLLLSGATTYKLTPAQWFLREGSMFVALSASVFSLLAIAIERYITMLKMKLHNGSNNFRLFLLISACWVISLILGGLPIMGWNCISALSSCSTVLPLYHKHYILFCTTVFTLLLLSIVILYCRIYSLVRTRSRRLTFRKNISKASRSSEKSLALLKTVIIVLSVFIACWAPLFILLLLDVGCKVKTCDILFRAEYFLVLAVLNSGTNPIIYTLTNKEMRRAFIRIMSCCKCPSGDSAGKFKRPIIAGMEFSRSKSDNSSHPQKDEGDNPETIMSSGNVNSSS

CCc1cc(/C(C)=N/OCc2ccc(C3CCCCC3)c(C(F)(F)F)c2)ccc1CN1CC(C(=O)O)C1 [BAF312]
activation of S1P3 (S1P3 receptor): without activating S1P3 | activity against S1P1 (S1P1 [1]): excellent activity | activity against S1P5 (S1P5): excellent activity | bradycardia side effect [2]: bradycardia, a side effect of FTY720, still occurred

CC(C)Oc1ccc(-c2ncc(-c3ccc(CN4CC(C(=O)[O-])C4)cc3)[se]2)cc1Cl.[Na+] [Compound 13, Sodium 1-(4-(2-(3-chloro-4-isopropoxyphenyl)-1,3-selenazole-5-yl)benzyl)azetidine-3-carboxylate]
S1P1 activity (overall, in words) (S1P1 [3]): excellent activity

CCCCCCCCc1ccc(CCC(N)(CO)CO)cc1 [fingolimod]
activation of S1P3 (S1P3 receptor): activation of the S1P3 receptor | bradycardia side effect [2]: causes bradycardia
